# Measured values: patent US10450549B2, “Aryloxyphenoxypropionate tolerance in turfrgass species and use of AAD1 as a selectable marker” (Dow AgroSciences, LLC, priority 2004, dated 2019)
# Experiments:
# [1] = tested on: AAD2 (v1)-transformed T1 Arabidopsis; assay: T1 Arabidopsis response to postemergence herbicide, % visual injury 2 WAT: native AAD2 (v1) transformants; assay type: in vivo, Arabidopsis thaliana; conditions: Native AAD2 gene
# Description: Table 16. […] Response is presented in terms of % visual injury 2 WAT. […] Since each T1 is an independent transformation event, one can expect significant variation of individual T1 responses within a given rate. An arithmetic mean and standard deviation is presented for each treatment. The range in individual response is also indicated in the last column for each rate and transformation. PAT/Cry1F-transformed Arabidopsis served as an auxin-sensitive transformed control. Wildtype Arabidopsis is untransformed.
# Freshly harvested T1 seed transformed with a native [AAD1 (v2)], plant optimized [AAD1 (v3)], or native AAD2 (v1) gene was allowed to dry for 7 days at room temperature. T1 seed was sown in 26.5×51-cm germination trays (T.O. Plastics Inc., Clearwater, Minn.), each receiving a 200 mg aliquots of stratified T1 seed (˜10,000 seed) that had previously been suspended in 40 ml of 0.1% agarose solution and stored at 4° C. for 2 days to complete dormancy requirements and ensure synchronous seed germination.
# Sunshine Mix LP5 (Sun Gro Horticulture Inc., Bellevue, Wash.) was covered with fine vermiculite and subirrigated with Hoagland's solution until wet and then allowed to gravity drain. Each 40 ml aliquot of stratified seed was sown evenly onto the vermiculite with a pipette and covered with humidity domes (KORD Products, Bramalea, Ontario, Canada) for 4-5 days. Domes were removed 1 day prior to initial transformant selection using glufosinate postemergence spray (selecting for the co-transformed PAT gene).
# Five to six days after planting (DAP) and again 10 DAP, T1 plants (cotyledon and 2-4-1f stage, respectively) were sprayed with a 0.2% solution of Liberty herbicide (200 g ai/L glufosinate, Bayer Crop Sciences, Kansas City, Mo.) at a spray volume of 10 ml/tray (703 L/ha) using a DeVilbiss compressed air spray tip to deliver an effective rate of 280 g ai/ha glufosinate per application. Survivors (plants actively growing) were identified 5-7 days after the final spraying and transplanted individually into 3-inch pots prepared with potting media (Metro Mix 360). Transplanted plants were covered with humidity domes for 3-4 days and placed in a 22° C. growth chamber as before. Domes were subsequently removed and plants moved to the greenhouse (22+5° C., 50+30% RH, 14 hours light:10 dark, minimum 500 μE/m^2s^1 natural+supplemental light) at least 1 day prior to testing for the ability of AAD1 (v3), AAD1 (v2), or AAD2 (v1) to provide phenoxy auxin herbicide resistance.
# Random individual T1 plants selected for glufosinate resistance above were confirmed for expression of the PAT protein using a PAT ELISA kit (Part no. 7000045, Strategic Diagnostics, Inc., Newark, Del.) to non-destructively confirm fidelity of selection process (manufacturer's protocol).
# Herbicide applications were applied by track sprayer in a 187 L/ha spray volume.
# [2] = tested on: T4 Arabidopsis homozygous for AAD1 (v3) (line AAD1.01.315.076); assay: Foliar-applied auxinic herbicides on homozygous T4 AAD1 (v3) Arabidopsis, % injury 14 DAT; assay type: in vivo, Arabidopsis thaliana; conditions: AAD1.01.315.076.T4 homozygous AAD1 plants
# Summary of the method: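 Homozygous T4 AAD1 (v3) Arabidopsis (line AAD1.01.315.076) and a PAT/Cry1F transformed control were grown in pots and track-sprayed foliarly at 187 L/ha with herbicides formulated in 200 mM Hepes pH 7.5. Injury was rated 14 days after treatment, with 3-4 replicates averaged over two experiments.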
# [3] = tested on: AAD1 (v3) event lines; assay: Field tolerance of pDAB3404 T1 corn to quizalofop and 2,4-D: AAD1 (v3) events; assay type: in vivo; conditions: 140 g ae/ha
# Description: Two field trials were established at field stations in Hawaii and Indiana. […] The hybrid Hi-II×5XH571 is of the same parentage as the AAD1 (v3) event lines. The hybrid Croplan 585SR is a sethoxydim resistant line.
# The experimental design was a split-plot with four replications. The main plot was herbicide treatment and the sub-plot was AAD1 (v3) event or comparison hybrid. Plots were one row by 3.7 meters with approximately twenty-five seeds planted in each row. For AAD1 events, seeds from a different lineage within the event were planted in each replicate.
# Glufosinate at 560 g ai/ha was applied to AAD1 (v3) plots at the V2 stage to eliminate non-transformed plants. […] Treatments were applied using backpack broadcast boom equipment delivering 187 L/ha carrier volume at 130-200 kpa pressure.
# Quizalofop treated plots were visually assessed for crop injury at one and three weeks after application (WAA) using a 0-100% scale, where 0 equals no injury and 100 equals complete death.
compound,measurement,setting,value
"O=C(O)COc1ccc(Cl)cc1Cl [2,4-D, 2,4-dichlorophenoxyacetic acid]",% Injury Ave,[1]; 50 g ae/ha,68.2%
same,individuals with 20-40% injury,[1]; 50 g ae/ha,2
same,individuals with <20% injury,[1]; 50 g ae/ha,1
same,individuals with >40% injury,[1]; 50 g ae/ha,11
same,individuals with 20-40% injury,[1]; 200 g ae/ha,3
same,individuals with <20% injury,[1]; 200 g ae/ha,0
same,individuals with >40% injury,[1]; 200 g ae/ha,11
same,% Injury Ave,[1]; 800 g ae/ha,99.8%
same,individuals with 20-40% injury,[1]; 800 g ae/ha,0
same,individuals with <20% injury,[1]; 800 g ae/ha,0
same,individuals with >40% injury,[1]; 800 g ae/ha,14
Nc1c(Cl)c(F)nc(OCC(=O)O)c1Cl [Fluroxypyr],Ave % Injury 14DAT,[2]; 50 g ae/ha foliar,48%
same,Ave % Injury 14DAT,[2]; 200 g ae/ha foliar,75%
same,Ave % Injury 14DAT,[2]; 800 g ae/ha foliar,88%
same,Ave % Injury 14DAT,[2]; 3200 g ae/ha foliar,95%
C[C@@H](Oc1ccc(Oc2cnc3cc(Cl)ccc3n2)cc1)C(=O)O [quizalofop],% Injury 3 WAA (0-100 scale),"[3]; HI, 3404.001",25%
same,% Injury 3 WAA (0-100 scale),"[3]; HI, 3404.006",0%
same,% Injury 3 WAA (0-100 scale),"[3]; HI, 3404.013",0%
same,% Injury 3 WAA (0-100 scale),"[3]; HI, 3404.017",0%
same,% Injury 3 WAA (0-100 scale),"[3]; HI, 3404.020",0%
same,% Injury 3 WAA (0-100 scale),"[3]; HI, 3404.022",0%
same,% Injury 3 WAA (0-100 scale),"[3]; HI, 3404.025",0%
same,% Injury 3 WAA (0-100 scale),"[3]; HI, 3404.027",0%
same,% Injury 3 WAA (0-100 scale),"[3]; HI, 3404.031",0%
same,% Injury 3 WAA (0-100 scale),"[3]; HI, 3404.033",0%
same,% Injury 3 WAA (0-100 scale),"[3]; HI, 3404.036",0%
same,% Injury 3 WAA (0-100 scale),"[3]; HI, 3404.044",0%
same,% Injury 3 WAA (0-100 scale),"[3]; HI, 3404.050",0%
same,% Injury 3 WAA (0-100 scale),"[3]; HI, 3404.053",0%
same,% Injury 3 WAA (0-100 scale),"[3]; HI, 3404.074",0%
same,% Injury 3 WAA (0-100 scale),"[3]; HI, 3404.082",0%
same,% Injury 3 WAA (0-100 scale),"[3]; IN, 3404.001",25%
same,% Injury 3 WAA (0-100 scale),"[3]; IN, 3404.006",0%
same,% Injury 3 WAA (0-100 scale),"[3]; IN, 3404.013",0%
same,% Injury 3 WAA (0-100 scale),"[3]; IN, 3404.017",0%
same,% Injury 3 WAA (0-100 scale),"[3]; IN, 3404.020",0%
same,% Injury 3 WAA (0-100 scale),"[3]; IN, 3404.022",0%
same,% Injury 3 WAA (0-100 scale),"[3]; IN, 3404.025",0%
same,% Injury 3 WAA (0-100 scale),"[3]; IN, 3404.027",0%
same,% Injury 3 WAA (0-100 scale),"[3]; IN, 3404.031",0%
same,% Injury 3 WAA (0-100 scale),"[3]; IN, 3404.033",0%
same,% Injury 3 WAA (0-100 scale),"[3]; IN, 3404.036",0%
same,% Injury 3 WAA (0-100 scale),"[3]; IN, 3404.044",0%
same,% Injury 3 WAA (0-100 scale),"[3]; IN, 3404.050",0%
same,% Injury 3 WAA (0-100 scale),"[3]; IN, 3404.053",0%
same,% Injury 3 WAA (0-100 scale),"[3]; IN, 3404.074",0%
same,% Injury 3 WAA (0-100 scale),"[3]; IN, 3404.082",0%
